Source: patent EP0394928A1, “Topical antiviral pharmaceutical composition containing a nonionic surfactant” (SYNTEX (U.S.A.) INC., priority 1989, dated 1990)
Marks after values point to notes of the source that are not given here.

Columns and labels:
[1] = Partition coefficient (octanol / water); assay type: physicochemical; details: for logP: ratio of concentrations in nonpolar medium, e.g. octanol, and aqueous medium, e.g. water
Excerpt: The modes of action reported for each compound are likewise distinct. Azone has been reported as a penetration enhancer, i.e., when it is co-administered with another agent, Azone will facilitate the movement of the agent into the cell by increasing lipid fluidity (Lambert, et al., (1989), Pharm Res., 6(9):798-803). The enhancement effect has been reported to be more pronounced with lipophilic agents and with agents with higher partition coefficients. A partition coefficient is the ratio of the concentrations of a given compound in a nonpolar medium, e.g., octanol and in an aqueous medium, e.g., water (ACV and DHPG have partition coefficients of less than 0.1, whereas Ada-DHPG has a partition coefficient of about 2.8 x10⁵).

HSV-1 (F strain) [2] = test: Guinea pig model of cutaneous HSV-1 infection, acyclovir creams (Example 9); assay type: in vivo, female Hartley guinea pigs; details: 5% ACV in 5% Nonoxynol-9 cream; once a day for 3 days starting 24 hours post-infection; Day 4; treated vs nontreated side
Excerpt: In vivo testing for antiviral activity against cutaneous HSV-1 infections is also done using a guinea pig model, for example, by the procedures described by Hubler, W.R., Jr., Troy, D.F., Troll, D., and Jarratt, M., "Guinea Pig Model For Cutaneous Herpes Simplex Virus Infection", J. Invest. Dermatol., 62:92-95 (1974). This procedure is a modification of a procedure initially described by Hubler, W.R., Jr., et al., "Guinea Pig Model Eor Cutaneous Herpes Simplex Virus Infection", J. Invest. Dermatol., 62:92-95 (1974). The backs of female Hartley guinea pigs were shaved, depilated and inoculated with HSV-1 (F strain) in four different areas by multiple shallow punctures. Two quadrants were on the left side and two on the right side of the dorsum. The animals were divided into 3 treatment groups of 6 animals each. The treatment groups were topically administered a cream on one side of the back once a day for 3 days starting 24 hours post-infection, the other side of back was not treated. The creams contained as an active ingredient either 5% acyclovir in a polyethylene glycol (PEG) based cream (Zovirax ®), 5% acyclovir in a 5% Nonoxynol-9 (N-9) cream or 5% Nonoxynol-9 cream only (placebo control). The numbers of lesions which developed on either the treated or untreated side of the back were counted on Day 4 after infection. […]

HSV-1 (F strain) [3] = test: Guinea pig model of cutaneous HSV-1 infection, DHPG versus Ada-DHPG in PG, Azone or Nonoxynol-9 creams (Example 10); assay type: in vivo, female Hartley guinea pigs; details: 0.5 ml/animal once a day for 3 days, lesions counted Day 4
Excerpt: (§1) In vivo testing for antiviral activity against cutaneous HSV-1 infections is also done using a guinea pig model, for example, by the procedures described by Hubler, W.R., Jr., Troy, D.F., Troll, D., and Jarratt, M., "Guinea Pig Model For Cutaneous Herpes Simplex Virus Infection", J. Invest. Dermatol., 62:92-95 (1974).
(§2) This procedure is a modification of a procedure initially described by Hubler, W.R., Jr., et al., "Guinea Pig Model For Cutaneous Herpes Simplex Virus Infection", J. Invest. Dermatol., 62:92-95 (1974).
The backs of female Hartley guinea pigs were shaved, depilated and inoculated with HSV-1 (F strain) in four different areas by multiple shallow punctures. Two quadrants were on the left side and two on the right side of the dorsum. The animals were divided into groups and topically administered a cream on one side of the back (0.5 ml/animal) once a day for 3 days starting […] post infection. The other side of the back was not treated. The cream contained either a formulation of 9-(1,3-dihydroxy-2-propoxymethyl)guanine (DHPG) with Azone, Nonoxynol-9 (N-9), or propylene glycol (PG); or 9-[1,3-di(1-adamantylcarboxy)-2-propoxymethyl]guanine (Ada-DHPG) with Azone, Nonoxynol-9 (N-9), or propylene glycol (PG). Placebo groups were treated with only Azone, Nonoxynol-9 (N-9) or propylene glycol (PG). Both DHPG and Ada-DHPG were run in each test with a single formulation. A total of 4 tests were run. In each study, the number of lesions which developed were counted on Day 4 after infection. The treated side versus nontreated side for the various groups were compared by a percent reduction in the number of lesions which developed.

HSV-1 (F strain) [4] = test: Guinea pig model of cutaneous HSV-1 infection, dose response tests in Azone / Nonoxynol-9 creams (Example 8); assay type: in vivo, female Hartley guinea pigs; details: once a day 3 days from 24 hours post-infection, Day 4
Excerpt: as §1, §2
The backs of female Hartley guinea pigs were shaved, depilated and inoculated with HSV-1 (F strain) in four different areas by multiple shallow punctures. Two quadrants were on the left side and two on the right side of the dorsum. The guinea pigs were divided into treatment groups of usually 6 each. Treatment was topically administered once a day for 3 days starting 24 hours post-infection on one side of the back. The other side of the back was not treated. Different treatment groups were administered creams which contained 9-[1,3-di(1-adamantyl-carboxy)-2-propoxymethyl]guanine (Ada-DHPG), (10%, 5%, 2.5%, 1% or 0%) with 5% propylene glycol (PG), or 5% propylene glycol (PG); and either Nonoxynol-9 (5% and 2.5%) or Azone (10% and 5%). Additionally, other groups were administered creams containing Ada-DHPG (10%, 5%, 2.5%, 1% or 0%) with no propylene glycol and either 10% Azone or 5% Nonoxynol-9. Seven dose response tests were run in all. In each test the numbers of lesions were counted on Day 4 after infection. The treated side versus the nontreated side for the various groups were compared by a percent reduction in number of lesions which developed.

Structure (SMILES): Nc1nc2c(ncn2COCCO)c(=O)[nH]1 [ACV, 9-(2-hydroxyethoxymethyl)guanine]
- partition coefficient ([1]; octanol/water): less than 0.1
- Percent Reduction in numbers of lesions (HSV-1 (F strain) [2]): 69* Percent

Structure (SMILES): Nc1nc2c(ncn2COC(COC(=O)C23CC4CC(CC(C4)C2)C3)COC(=O)C23CC4CC(CC(C4)C2)C3)c(=O)[nH]1 (stereo not shown) [Ada-DHPG, 9-[1,3-di(1-adamantylcarboxy)-2-propoxymethyl]guanine]
- logP [1]: ~5.45
- Percent Reduction in the number of lesions (HSV-1 (F strain) [3]; Test 1: 10% Ada-DHPG in 25% PG cream): 51* Percent
- Percent Reduction in the number of lesions (HSV-1 (F strain) [3]; Test 2: 10% Ada-DHPG in 5% PG cream): 42* Percent
- Percent Reduction in the number of lesions (HSV-1 (F strain) [3]; Test 3: 10% Ada-DHPG in 10% Azone cream): 76* Percent
- Percent Reduction in the number of lesions (HSV-1 (F strain) [3]; Test 4: 10% Ada-DHPG in 5% Nonoxynol-9 cream): 77* Percent
- Percent Reduction in number of lesions (HSV-1 (F strain) [4]; Test 1: 1% Ada-DHPG, 5% PG (no surfactant added) cream): 12%
- Percent Reduction in number of lesions (HSV-1 (F strain) [4]; Test 1: 2.5% Ada-DHPG, 5% PG (no surfactant added) cream): 16%
- Percent Reduction in number of lesions (HSV-1 (F strain) [4]; Test 1: 5% Ada-DHPG, 5% PG (no surfactant added) cream): 3%
- Percent Reduction in number of lesions (HSV-1 (F strain) [4]; Test 1: 10% Ada-DHPG, 5% PG (no surfactant added) cream): 37* Percent
- Percent Reduction in number of lesions (HSV-1 (F strain) [4]; Test 2: 1% Ada-DHPG, 5% Azone cream (with 5% PG)): -6%
- Percent Reduction in number of lesions (HSV-1 (F strain) [4]; Test 2: 2.5% Ada-DHPG, 5% Azone cream (with 5% PG)): 14%
- Percent Reduction in number of lesions (HSV-1 (F strain) [4]; Test 2: 5% Ada-DHPG, 5% Azone cream (with 5% PG)): 14%
- Percent Reduction in number of lesions (HSV-1 (F strain) [4]; Test 2: 10% Ada-DHPG, 5% Azone cream (with 5% PG)): 29%
- Percent Reduction in number of lesions (HSV-1 (F strain) [4]; Test 3: 1% Ada-DHPG, 10% Azone cream (with 5% PG)): 43* Percent
- Percent Reduction in number of lesions (HSV-1 (F strain) [4]; Test 3: 2.5% Ada-DHPG, 10% Azone cream (with 5% PG)): 35* Percent
- Percent Reduction in number of lesions (HSV-1 (F strain) [4]; Test 3: 5% Ada-DHPG, 10% Azone cream (with 5% PG)): 73* Percent
- Percent Reduction in number of lesions (HSV-1 (F strain) [4]; Test 3: 10% Ada-DHPG, 10% Azone cream (with 5% PG)): 78* Percent
- Percent Reduction in number of lesions (HSV-1 (F strain) [4]; Test 4: 1% Ada-DHPG, 10% Azone (no PG) cream): 27%
- Percent Reduction in number of lesions (HSV-1 (F strain) [4]; Test 4: 2.5% Ada-DHPG, 10% Azone (no PG) cream): 18%
- Percent Reduction in number of lesions (HSV-1 (F strain) [4]; Test 4: 5% Ada-DHPG, 10% Azone (no PG) cream): 27%
- Percent Reduction in number of lesions (HSV-1 (F strain) [4]; Test 4: 10% Ada-DHPG, 10% Azone (no PG) cream): 47* Percent
- Percent Reduction in number of lesions (HSV-1 (F strain) [4]; Test 5: 1% Ada-DHPG, 2.5% Nonoxynol-9 cream (with 5% PG)): 33%
- Percent Reduction in number of lesions (HSV-1 (F strain) [4]; Test 5: 2.5% Ada-DHPG, 2.5% Nonoxynol-9 cream (with 5% PG)): 52* Percent
- Percent Reduction in number of lesions (HSV-1 (F strain) [4]; Test 5: 5% Ada-DHPG, 2.5% Nonoxynol-9 cream (with 5% PG)): 52* Percent
- Percent Reduction in number of lesions (HSV-1 (F strain) [4]; Test 5: 10% Ada-DHPG, 2.5% Nonoxynol-9 cream (with 5% PG)): 64* Percent
- Percent Reduction in number of lesions (HSV-1 (F strain) [4]; Test 6: 1% Ada-DHPG, 5% Nonoxynol-9 cream (with 5% PG)): 59* Percent
- Percent Reduction in number of lesions (HSV-1 (F strain) [4]; Test 6: 2.5% Ada-DHPG, 5% Nonoxynol-9 cream (with 5% PG)): 65* Percent
- Percent Reduction in number of lesions (HSV-1 (F strain) [4]; Test 6: 5% Ada-DHPG, 5% Nonoxynol-9 cream (with 5% PG)): 92* Percent
- Percent Reduction in number of lesions (HSV-1 (F strain) [4]; Test 6: 10% Ada-DHPG, 5% Nonoxynol-9 cream (with 5% PG)): 88* Percent
- Percent Reduction in number of lesions (HSV-1 (F strain) [4]; Test 7: 1% Ada-DHPG, 5% Nonoxynol-9 (no PG) cream): 57* Percent
- Percent Reduction in number of lesions (HSV-1 (F strain) [4]; Test 7: 2.5% Ada-DHPG, 5% Nonoxynol-9 (no PG) cream): 68* Percent
- Percent Reduction in number of lesions (HSV-1 (F strain) [4]; Test 7: 5% Ada-DHPG, 5% Nonoxynol-9 (no PG) cream): 90* Percent
- Percent Reduction in number of lesions (HSV-1 (F strain) [4]; Test 7: 10% Ada-DHPG, 5% Nonoxynol-9 (no PG) cream): 82* Percent

Structure (SMILES): Nc1nc2c(ncn2COC(CO)CO)c(=O)[nH]1 [DHPG, 9-(1,3-dihydroxy-2-propoxymethyl)guanine, reference compound]
- logP [1]: < -1
- Percent Reduction in the number of lesions (HSV-1 (F strain) [3]; Test 1: 4.4% DHPG in 25% PG cream): 75* Percent
- Percent Reduction in the number of lesions (HSV-1 (F strain) [3]; Test 2: 4.4% DHPG in 5% PG cream): 68* Percent
- Percent Reduction in the number of lesions (HSV-1 (F strain) [3]; Test 3: 4.4% DHPG in 10% Azone cream): 100* Percent
- Percent Reduction in the number of lesions (HSV-1 (F strain) [3]; Test 4: 4.4% DHPG in 5% Nonoxynol-9 cream): 94* Percent
